Measured values from US6872745B2, “Antipicornaviral compounds and compositions, their pharmaceutical uses, and materials for their synthesis” (Agouron Pharmaceuticals, Inc., priority 2000, dated 2005).

Key:
CAV-21 = test: Anticoxsackieviral cell culture assay (H1-HeLa, XTT); format: cell-based, Coxsackievirus type A-21; conditions: Coxsackievirus; CAV-21, H1-HeLa cells
Method: (§1) Coxsackievirus types A-21 (CAV-21) and B3 (CVB3) were purchased from American Type Culture Collection (ATCC, Rockville, Md.). Virus stocks were propagated and antiviral assays were performed in H1-HeLa cells (ATCC). Cells were grown in minimal essential medium with 10% fetal bovine serum (Life Technologies, Gaithersburg, Md.). The ability of the compounds of this invention to protect cells against either CAV-21 or CVB3 infection was measured by the XTT dye reduction method. This method is described in Weislow et al., J. Natl. Cancer Inst. (1989), vol. 81, 577-586. H1-HeLa cells were infected with CAV-21 or CVB3 at a multiplicity of infection (m.o.i.) of 0.025 or 0.075, respectively, or mock-infected with medium only. H1-HeLa cells were plated at 4×10^4 cells per well in a 96-well plate and incubated with appropriate concentrations of the test compound. One day (CVB3) or two days (CAV-21) later, XTT/PMS was added to test plates and the amount of formazan produced was quantified spectrophotometrically at 450/650 nm. The EC50 was calculated as the concentration of compound that increased the formazan production in compound-treated, virus-infected cells to 50% of that produced by compound-free, uninfected cells. […] The therapeutic index (TI) was calculated by dividing the CC50 by the EC50.

H1-HeLa cells = test: Cytotoxicity in mock-infected cells of the antirhinoviral assay (XTT); format: cell-based
Method in brief: (§2)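 H1-HeLa cells infected with HRV (HRV-14 at m.o.i. 0.13) or mock-infected, incubated with compound for two days; protection read by XTT/PMS formazan at 450/650 nm. EC50 is the concentration restoring formazan to 50% of mock-infected controls. CC50 is from mock-infected cells, and TI = CC50/EC50.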

[1] = as above; format: cell-based; conditions: human, H1-HeLa cells, table line HRV-14
Method in brief: as §2

[2] = target: T1, rhinovirus 3C protease, serotype 14 (Human rhinovirus 14, UniProt P03303); test: Inhibition of rhinovirus 3C protease (FRET assay, enzyme start); format: biochemical; conditions: HRV-14 3C protease, progress curves, read-out: Kobs/I
T1 construct: Recombinant rhinovirus 3C proteases; made in house
T1 sequence (P03303 1538-1719): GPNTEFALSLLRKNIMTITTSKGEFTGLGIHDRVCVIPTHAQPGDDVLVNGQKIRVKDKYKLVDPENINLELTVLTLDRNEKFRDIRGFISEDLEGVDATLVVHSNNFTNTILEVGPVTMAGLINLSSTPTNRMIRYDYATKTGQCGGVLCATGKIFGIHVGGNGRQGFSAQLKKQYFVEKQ
Method in brief: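 Recombinant serotype 14 3C protease (50-100 nM) with ~1 μM DABCYL-GRAVFQGPVG-EDANS FRET substrate in 50 mM tris pH 7.6, 1 mM EDTA, 2% DMSO. Reactions started by enzyme addition; kobs/[I] taken from fluorescence-increase progress curves.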

EV 70 = test: Anti-enteroviral cell culture assay (MRC-5, XTT); format: cell-based, enterovirus type 70; conditions: Enterovirus D, MRC5; ENT-70, MRC-5 cells
Method: (§3) Echovirus type 11 (ECHO 11) was purchased from ATCC (Rockville, Md.). Virus stocks were propagated and antiviral assays were performed in MRC-5 cells (ATCC). Cells were grown in minimal essential medium with 10% fetal bovine serum (Life Technologies, Gaithersburg, Md.). The ability of the compounds of this invention to protect cells against ECHO 11 infection was measured by the XTT dye reduction method (Weislow et al., J. Natl. Cancer Inst. (1989), vol. 81, 577-586). MRC-5 cells were infected with ECHO 11 at an m.o.i. of 0.003 or 0.004, respectively, or mock-infected with medium only. Infected or uninfected cells were added at 1×10^4 cells per well and incubated with appropriate concentrations of compound. Four days later, XTT/PMS was added to test plates, and the amount of formazan produced was quantified spectrophotometrically at 450/650 nm. The EC50 was calculated as the concentration of compound that increased the formazan production in compound-treated, virus-infected cells to 50% of that produced by compound-free, uninfected cells. […] The therapeutic index (TI) was calculated by dividing the CC50 by the EC50. Activity of the compounds against enterovirus type 70 (EV 70) may be measured by the same assay as described above in this section. […]

HRV-14 = test: Antirhinoviral H1-HeLa cell culture assay (XTT cell protection); format: cell-based, human rhinovirus; conditions: Rhinovirus B, HRV14, H1-HeLa, HRV-14, H1-HeLa cells
Method in brief: as §2

HRV-1A = test: as above; format: cell-based, human rhinovirus; conditions: Rhinovirus A, HRV1A, H1-HeLa cells
HRV-10 = test: as above; format: cell-based; conditions: Human rhinovirus sp., HRV10; HRV-10, H1-HeLa cells
Method: In this cell protection assay, the ability of compounds to protect cells against HRV infection was measured by the XTT dye reduction method, which is described in Weislow et al., J. Natl. Cancer Inst. (1989), vol. 81, 577-586. H1-HeLa cells were infected with HRV-14 at a multiplicity of infection (m.o.i.) of 0.13 (virus particles/cell) or mock-infected with medium only. Infected or mock-infected cells were resuspended at 8×10^5 cells per ml, and incubated with appropriate concentrations of the compounds to be tested. Two days later, XTT/PMS was added to test plates and the amount of formazan produced was quantified spectrophotometrically at 450/650 nm. The EC50 value was calculated as the concentration of compound that increased the percentage of formazan production in compound-treated, virus-infected cells to 50% of that produced by compound-free, mock-infected cells. The 50% cytotoxic dose (CC50) was calculated as the concentration of compound that decreased the percentage of formazan produced in compound-treated, mock-infected cells to 50% of that produced by compound-free, mock-infected cells. The therapeutic index (TI) was calculated by dividing the CC50 value by the EC50 value.
All strains of human rhinovirus (HRV) for use in this assay were purchased from American Type Culture Collection (ATCC), except for HRV serotype-14 (produced from the infectious cDNA clone constructed by Dr. Robert Rueckert, Institute for Molecular Virology, University of Wisconsin, Madison, Wis.). HRV stocks were propagated and viral assays were performed in H1-HeLa cells (ATCC). Cells were grown in minimal essential medium with 10% fetal bovine serum, available from Life Technologies (Gaithersburg, Md.).

MRC-5 cells = test: Cytotoxicity in uninfected cells of the anti-echoviral/anti-enteroviral assay (XTT); format: cell-based; conditions: table line ENT-70
Method: as §3

[3] = as above; format: cell-based; conditions: human, MRC-5 cells, table line ECHO-11
Method: as §3

[4] = Cytotoxicity in uninfected cells of the anticoxsackieviral assay (XTT); format: cell-based; conditions: human, H1-HeLa cells, table line CAV-21
Method: as §1

ECHO 11 = test: Anti-echoviral cell culture assay (MRC-5, XTT); format: cell-based, Echovirus type 11; conditions: Enterovirus B, MRC5; ECHO-11, MRC-5 cells
Method: as §3

SMILES: CCOC(=O)/C=C/[C@H](C[C@@H]1CCNC1=O)NC(=O)[C@H](Cc1ccccc1)NC(=O)c1ccc(-c2cccc3ccccc23)[nH]1 [Compound 25, 4S-{2S-[(5-Naphthalen-1-yl-1H-pyrrole-2-carbonyl)-amino]-3-phenyl-propionylamino}-5-(2-oxo-pyrrolidin-3S-yl)-pent-2-enoic acid ethyl ester]
- EC50 (CAV-21): 0.2 µM
- CC50 (H1-HeLa cells; table line HRV-1A): > 10 µM
- CC50 (H1-HeLa cells; table line HRV-10): > 10 µM
- CC50 at 2 days [1]: > 10 µM
- kinact/KI [2]: 690000 M⁻¹ s⁻¹
- EC50 (EV 70): 0.003 µM
- EC50 (HRV-14): 0.034 µM
- EC50 (HRV-1A): 0.089 µM
- EC50 (HRV-10): 0.148 µM
- CC50 (MRC-5 cells): > 10 µM
- CC50 at 4 days [3]: > 10 µM
- CC50 at 2 days [4]: > 10 µM
- EC50 (ECHO 11): 0.044 µM
